Assay results published in the kinase profiling compilation of Christmann-Franck et al. (2016).

How the values were obtained:
Experiment in all cases: KINOMEscan competition binding
Conditions in all cases: compound 10.0 µM
BMPR1B (human) = BMPR1B (human) (UniProt O00238)
BRSK2 (human) = BRSK2 (human) (UniProt Q8IWQ3)
CAMK1G (human) = CAMK1G (human) (UniProt Q96NX5)
CAMK2G (human) = CAMK2G (human) (UniProt Q13555)
CDC42BPA (human) = CDC42BPA (human) (UniProt Q5VT25)
CDK16 (human) = CDK16 (human) (UniProt Q00536)
CDKL1 (human) = CDKL1 (human) (UniProt Q00532)
CDKL5 (human) = CDKL5 (human) (UniProt O76039)
Chain of CDKL5 (human) (O76039 whole entry, looked up): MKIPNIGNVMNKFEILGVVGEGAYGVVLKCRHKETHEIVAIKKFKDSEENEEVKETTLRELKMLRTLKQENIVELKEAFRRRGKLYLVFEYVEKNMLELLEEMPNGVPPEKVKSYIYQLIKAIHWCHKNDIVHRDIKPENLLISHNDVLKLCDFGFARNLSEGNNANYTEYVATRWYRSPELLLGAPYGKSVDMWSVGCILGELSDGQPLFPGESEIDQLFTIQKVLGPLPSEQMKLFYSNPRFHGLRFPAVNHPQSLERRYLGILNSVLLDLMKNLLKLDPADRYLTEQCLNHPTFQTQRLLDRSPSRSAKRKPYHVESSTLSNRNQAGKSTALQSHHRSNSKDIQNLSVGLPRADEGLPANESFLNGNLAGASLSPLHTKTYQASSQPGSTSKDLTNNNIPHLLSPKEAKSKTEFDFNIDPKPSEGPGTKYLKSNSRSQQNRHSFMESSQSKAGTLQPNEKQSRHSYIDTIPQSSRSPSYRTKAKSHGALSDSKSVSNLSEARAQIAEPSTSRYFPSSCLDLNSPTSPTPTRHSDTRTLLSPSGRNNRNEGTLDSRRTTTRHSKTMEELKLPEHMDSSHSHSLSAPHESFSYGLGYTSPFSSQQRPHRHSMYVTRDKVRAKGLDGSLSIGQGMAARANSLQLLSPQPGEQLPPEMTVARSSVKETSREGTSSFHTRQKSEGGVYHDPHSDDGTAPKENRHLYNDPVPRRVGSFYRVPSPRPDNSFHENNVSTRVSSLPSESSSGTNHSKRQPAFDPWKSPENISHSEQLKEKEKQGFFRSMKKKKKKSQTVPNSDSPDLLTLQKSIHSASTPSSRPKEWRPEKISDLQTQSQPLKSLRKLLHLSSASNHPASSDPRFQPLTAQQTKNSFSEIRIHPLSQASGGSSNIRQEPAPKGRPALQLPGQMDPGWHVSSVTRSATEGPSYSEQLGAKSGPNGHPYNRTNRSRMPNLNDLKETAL

CHEK2 (human) = CHEK2 (human) (UniProt O96017)
CLK2 (human) = CLK2 (human) (UniProt P49760)
CPK1 (P.falciparum) = tested on: CPK1 (P.falciparum)
CSNK1G2 (human) = CSNK1G2 (human) (UniProt P78368)
DDR1 (human) = DDR1 (human) (UniProt Q08345)
HCK (human) = HCK (human) (UniProt P08631)
IGF1R (human) = IGF1R (human) (UniProt P08069)
INSRR (human) = INSRR (human) (UniProt P14616)
Chain of INSRR (human) (P14616 whole entry, looked up): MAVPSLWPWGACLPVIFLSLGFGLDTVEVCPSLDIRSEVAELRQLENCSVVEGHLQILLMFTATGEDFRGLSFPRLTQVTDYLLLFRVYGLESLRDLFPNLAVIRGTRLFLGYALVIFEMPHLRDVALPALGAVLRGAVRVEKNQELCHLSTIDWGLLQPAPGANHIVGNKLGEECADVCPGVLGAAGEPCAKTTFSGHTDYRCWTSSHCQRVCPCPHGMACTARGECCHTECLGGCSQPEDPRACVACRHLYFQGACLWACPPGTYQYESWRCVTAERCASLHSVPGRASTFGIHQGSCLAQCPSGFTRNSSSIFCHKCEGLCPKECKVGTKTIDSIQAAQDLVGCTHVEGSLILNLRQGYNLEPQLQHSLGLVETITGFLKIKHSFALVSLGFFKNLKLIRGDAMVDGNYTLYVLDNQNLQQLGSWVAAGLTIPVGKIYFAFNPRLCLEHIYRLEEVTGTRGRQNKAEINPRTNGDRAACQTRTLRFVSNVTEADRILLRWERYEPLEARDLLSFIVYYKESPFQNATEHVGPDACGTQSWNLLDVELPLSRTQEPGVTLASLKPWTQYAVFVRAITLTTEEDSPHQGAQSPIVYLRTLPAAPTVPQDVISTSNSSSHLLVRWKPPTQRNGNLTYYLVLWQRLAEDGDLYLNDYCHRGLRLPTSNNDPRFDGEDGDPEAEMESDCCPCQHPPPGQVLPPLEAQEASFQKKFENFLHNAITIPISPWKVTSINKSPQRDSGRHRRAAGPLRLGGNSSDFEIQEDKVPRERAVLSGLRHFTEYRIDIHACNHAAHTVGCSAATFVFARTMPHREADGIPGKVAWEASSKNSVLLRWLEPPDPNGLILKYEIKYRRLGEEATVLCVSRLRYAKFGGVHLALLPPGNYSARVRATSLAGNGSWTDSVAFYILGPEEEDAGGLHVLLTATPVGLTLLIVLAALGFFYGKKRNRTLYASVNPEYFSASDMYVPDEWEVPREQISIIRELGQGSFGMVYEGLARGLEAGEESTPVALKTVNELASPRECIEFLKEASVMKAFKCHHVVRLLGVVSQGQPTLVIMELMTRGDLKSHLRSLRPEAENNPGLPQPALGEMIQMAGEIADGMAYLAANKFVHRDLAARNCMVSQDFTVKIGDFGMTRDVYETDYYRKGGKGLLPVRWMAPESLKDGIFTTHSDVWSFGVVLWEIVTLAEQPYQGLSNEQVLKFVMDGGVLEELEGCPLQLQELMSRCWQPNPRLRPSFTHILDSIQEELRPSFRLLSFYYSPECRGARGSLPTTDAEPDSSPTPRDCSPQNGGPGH

LCK (human) = LCK (human) (UniProt P06239)
MAP3K4 (human) = MAP3K4 (human) (UniProt Q9Y6R4)
MAP4K2 (human) = MAP4K2 (human) (UniProt Q12851)
MAP4K4 (human) = MAP4K4 (human) (UniProt O95819)
MAPK1 (human) = MAPK1 (human) (UniProt P28482)
MAPK10 (human) = MAPK10 (human) (UniProt P53779)
MAPK12 (human) = MAPK12 (human) (UniProt P53778)
MAPK3 (human) = MAPK3 (human) (UniProt P27361)
MAPK6 (human) = MAPK6 (human) (UniProt Q16659)
Chain of MAPK6 (human) (Q16659 whole entry, looked up): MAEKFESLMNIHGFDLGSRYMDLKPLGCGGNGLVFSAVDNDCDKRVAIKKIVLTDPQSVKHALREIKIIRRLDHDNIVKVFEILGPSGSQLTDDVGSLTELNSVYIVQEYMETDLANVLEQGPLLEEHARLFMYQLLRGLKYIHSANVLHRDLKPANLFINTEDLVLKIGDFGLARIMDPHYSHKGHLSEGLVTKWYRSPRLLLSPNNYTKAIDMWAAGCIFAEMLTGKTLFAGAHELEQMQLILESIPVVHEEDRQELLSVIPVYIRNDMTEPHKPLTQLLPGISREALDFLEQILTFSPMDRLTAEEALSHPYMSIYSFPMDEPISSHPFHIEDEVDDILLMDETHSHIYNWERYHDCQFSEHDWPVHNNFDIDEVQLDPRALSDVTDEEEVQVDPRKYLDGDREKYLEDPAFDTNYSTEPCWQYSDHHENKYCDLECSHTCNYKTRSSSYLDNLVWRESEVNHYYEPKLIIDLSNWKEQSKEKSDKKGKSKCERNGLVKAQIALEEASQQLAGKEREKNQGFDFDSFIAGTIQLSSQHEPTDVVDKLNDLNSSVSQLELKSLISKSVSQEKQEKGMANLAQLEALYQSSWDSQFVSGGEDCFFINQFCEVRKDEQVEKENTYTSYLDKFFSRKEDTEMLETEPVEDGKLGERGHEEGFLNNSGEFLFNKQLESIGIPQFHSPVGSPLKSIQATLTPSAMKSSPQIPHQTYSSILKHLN

MKNK1 (human) = MKNK1 (human) (UniProt Q9BUB5)
MYO3B (human) = MYO3B (human) (UniProt Q8WXR4)
PDGFRA (human) = PDGFRA (human) (UniProt P16234)
PLK1 (human) = PLK1 (human) (UniProt P53350)
Chain of PLK1 (human) (P53350 whole entry, looked up): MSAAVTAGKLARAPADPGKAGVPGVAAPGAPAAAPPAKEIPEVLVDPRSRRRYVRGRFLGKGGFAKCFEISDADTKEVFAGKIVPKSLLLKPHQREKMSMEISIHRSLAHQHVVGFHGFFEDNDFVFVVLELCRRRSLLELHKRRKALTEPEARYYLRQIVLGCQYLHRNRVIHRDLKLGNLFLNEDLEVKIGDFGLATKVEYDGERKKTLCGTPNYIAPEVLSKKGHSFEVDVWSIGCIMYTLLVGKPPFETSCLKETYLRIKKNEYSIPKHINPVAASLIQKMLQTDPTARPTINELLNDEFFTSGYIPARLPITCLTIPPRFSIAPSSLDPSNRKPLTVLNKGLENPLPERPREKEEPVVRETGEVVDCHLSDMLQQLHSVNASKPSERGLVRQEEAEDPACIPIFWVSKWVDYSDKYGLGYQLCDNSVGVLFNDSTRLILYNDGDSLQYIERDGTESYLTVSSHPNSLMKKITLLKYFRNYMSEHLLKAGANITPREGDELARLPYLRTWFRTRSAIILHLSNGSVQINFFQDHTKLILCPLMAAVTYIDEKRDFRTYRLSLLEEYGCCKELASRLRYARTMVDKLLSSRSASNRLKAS

PRKCI (human) = PRKCI (human) (UniProt P41743)
PRKD3 (human) = PRKD3 (human) (UniProt O94806)
[1] = tested on: RET (human), P07949 [V804L]
RPS6KA4 KD2 (human) = RPS6KA4 KD2 (human) (UniProt O75676)
Chain of RPS6KA4 KD2 (human) (O75676 whole entry, looked up): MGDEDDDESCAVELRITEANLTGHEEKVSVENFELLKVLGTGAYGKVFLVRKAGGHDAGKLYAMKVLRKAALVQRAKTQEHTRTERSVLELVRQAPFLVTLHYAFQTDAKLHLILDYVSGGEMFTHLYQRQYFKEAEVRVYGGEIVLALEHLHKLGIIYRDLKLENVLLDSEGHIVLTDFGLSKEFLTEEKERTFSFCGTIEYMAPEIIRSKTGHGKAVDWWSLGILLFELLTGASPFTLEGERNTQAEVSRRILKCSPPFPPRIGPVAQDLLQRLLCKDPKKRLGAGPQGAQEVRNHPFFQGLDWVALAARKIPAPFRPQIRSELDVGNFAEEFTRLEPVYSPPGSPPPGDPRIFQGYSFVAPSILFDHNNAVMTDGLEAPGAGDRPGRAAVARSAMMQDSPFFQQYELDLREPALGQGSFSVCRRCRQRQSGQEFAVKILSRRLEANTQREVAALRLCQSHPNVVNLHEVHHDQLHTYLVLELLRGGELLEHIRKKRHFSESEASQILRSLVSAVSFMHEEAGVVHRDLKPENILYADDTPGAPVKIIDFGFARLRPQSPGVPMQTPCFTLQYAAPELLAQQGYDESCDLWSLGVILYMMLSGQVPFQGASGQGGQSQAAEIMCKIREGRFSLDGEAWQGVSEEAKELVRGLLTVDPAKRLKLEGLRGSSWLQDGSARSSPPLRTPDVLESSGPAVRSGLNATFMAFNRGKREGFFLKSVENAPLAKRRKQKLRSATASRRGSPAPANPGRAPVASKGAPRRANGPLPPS

STK35 (human) = STK35 (human) (UniProt Q8TDR2)
STK38L (human) = STK38L (human) (UniProt Q9Y2H1)
STK39 (human) = STK39 (human) (UniProt Q9UEW8)
TAOK3 (human) = TAOK3 (human) (UniProt Q9H2K8)
TEC (human) = TEC (human) (UniProt P42680)
TEK (human) = TEK (human) (UniProt Q02763)
TGFBR2 (human) = TGFBR2 (human) (UniProt P37173)

Chain of BRSK2 (human) (Q8IWQ3 whole entry, looked up): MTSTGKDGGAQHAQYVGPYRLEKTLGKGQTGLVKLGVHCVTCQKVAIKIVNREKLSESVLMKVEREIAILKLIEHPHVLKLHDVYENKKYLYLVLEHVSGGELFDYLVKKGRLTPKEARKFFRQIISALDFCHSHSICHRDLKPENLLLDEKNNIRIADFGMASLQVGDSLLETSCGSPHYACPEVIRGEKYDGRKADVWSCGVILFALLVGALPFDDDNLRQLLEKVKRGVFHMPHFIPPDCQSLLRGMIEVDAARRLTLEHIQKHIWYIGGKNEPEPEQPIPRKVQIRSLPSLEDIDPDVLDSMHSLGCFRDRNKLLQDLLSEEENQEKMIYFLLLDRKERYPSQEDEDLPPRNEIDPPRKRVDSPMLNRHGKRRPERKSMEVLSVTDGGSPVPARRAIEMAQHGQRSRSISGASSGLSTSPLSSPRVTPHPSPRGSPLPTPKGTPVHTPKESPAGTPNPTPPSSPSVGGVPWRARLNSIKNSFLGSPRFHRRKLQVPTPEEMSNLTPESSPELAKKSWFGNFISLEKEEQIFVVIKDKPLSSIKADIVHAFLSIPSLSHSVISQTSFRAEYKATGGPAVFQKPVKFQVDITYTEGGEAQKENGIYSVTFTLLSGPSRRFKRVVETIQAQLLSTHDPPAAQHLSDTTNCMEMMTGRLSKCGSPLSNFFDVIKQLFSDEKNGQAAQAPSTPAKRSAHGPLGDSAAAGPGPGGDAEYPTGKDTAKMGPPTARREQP

| Compound | kinase still bound, per cent of control (BMPR1B (human)) [%] | kinase still bound, per cent of control (BRSK2 (human)) [%] | kinase still bound, per cent of control (CAMK1G (human)) [%] | kinase still bound, per cent of control (CAMK2G (human)) [%] | kinase still bound, per cent of control (CDC42BPA (human)) [%] | kinase still bound, per cent of control (CDK16 (human)) [%] | kinase still bound, per cent of control (CDKL1 (human)) [%] | kinase still bound, per cent of control (CDKL5 (human)) [%] | kinase still bound, per cent of control (CHEK2 (human)) [%] | kinase still bound, per cent of control (CLK2 (human)) [%] | kinase still bound, per cent of control (CPK1 (P.falciparum)) [%] | kinase still bound, per cent of control (CSNK1G2 (human)) [%] | kinase still bound, per cent of control (DDR1 (human)) [%] | kinase still bound, per cent of control (HCK (human)) [%] | kinase still bound, per cent of control (IGF1R (human)) [%] | kinase still bound, per cent of control (INSRR (human)) [%] | kinase still bound, per cent of control (LCK (human)) [%] | kinase still bound, per cent of control (MAP3K4 (human)) [%] | kinase still bound, per cent of control (MAP4K2 (human)) [%] | kinase still bound, per cent of control (MAP4K4 (human)) [%] | further results |
| --- | --- | --- | --- | --- | --- | --- | --- | --- | --- | --- | --- | --- | --- | --- | --- | --- | --- | --- | --- | --- | --- |
| CCN1CCN(Cc2ccc(NC(=O)c3ccc(C)c(/C=C/c4cnc5[nH]ccc5c4OC)c3)cc2C(F)(F)F)CC1 | 14 | 100 | 100 | 100 | 15 | 98 | 61 | 78 | 66 | 71 | 0.2 | 39 | 0.15 | 0.45 | 100 | 100 | 0.15 | 66 | 0 | 4.2 | kinase still bound, per cent of control (MAPK1 (human)): 100%; kinase still bound, per cent of control (MAPK10 (human)): 15%; kinase still bound, per cent of control (MAPK12 (human)): 40%; kinase still bound, per cent of control (MAPK3 (human)): 100%; kinase still bound, per cent of control (MAPK6 (human)): 100%; kinase still bound, per cent of control (MKNK1 (human)): 68%; kinase still bound, per cent of control (MYO3B (human)): 40%; kinase still bound, per cent of control (PDGFRA (human)): 0.15%; kinase still bound, per cent of control (PLK1 (human)): 100%; kinase still bound, per cent of control (PRKCI (human)): 100%; kinase still bound, per cent of control (PRKD3 (human)): 52%; kinase still bound, per cent of control [1]: 0.1%; kinase still bound, per cent of control (RPS6KA4 KD2 (human)): 30%; kinase still bound, per cent of control (STK35 (human)): 23%; kinase still bound, per cent of control (STK38L (human)): 35%; kinase still bound, per cent of control (STK39 (human)): 100%; kinase still bound, per cent of control (TAOK3 (human)): 0%; kinase still bound, per cent of control (TEC (human)): 0.5%; kinase still bound, per cent of control (TEK (human)): 0.1%; kinase still bound, per cent of control (TGFBR2 (human)): 5.7% |
| C=CC(=O)Nc1ccc(C(=O)c2sc(Nc3ccc(N4CCN(C)CC4)cc3OC)nc2N)cc1 | 86 | 72 | 8.2 | 1.6 | 100 | 67 | 100 | 74 | 26 | 0 | 74 | 25 | 100 | 100 | 86 | 78 | 89 | 100 | 4.6 | 38 | kinase still bound, per cent of control (MAPK1 (human)): 100%; kinase still bound, per cent of control (MAPK10 (human)): 6.4%; kinase still bound, per cent of control (MAPK12 (human)): 100%; kinase still bound, per cent of control (MAPK3 (human)): 100%; kinase still bound, per cent of control (MAPK6 (human)): 90%; kinase still bound, per cent of control (MKNK1 (human)): 34%; kinase still bound, per cent of control (MYO3B (human)): 83%; kinase still bound, per cent of control (PDGFRA (human)): 100%; kinase still bound, per cent of control (PLK1 (human)): 45%; kinase still bound, per cent of control (PRKCI (human)): 26%; kinase still bound, per cent of control (PRKD3 (human)): 54%; kinase still bound, per cent of control [1]: 100%; kinase still bound, per cent of control (RPS6KA4 KD2 (human)): 0.2%; kinase still bound, per cent of control (STK35 (human)): 94%; kinase still bound, per cent of control (STK38L (human)): 68%; kinase still bound, per cent of control (STK39 (human)): 0%; kinase still bound, per cent of control (TAOK3 (human)): 23%; kinase still bound, per cent of control (TEC (human)): 98%; kinase still bound, per cent of control (TEK (human)): 89%; kinase still bound, per cent of control (TGFBR2 (human)): 100% |
